Drawing on patent US10301317B2, “Inhibitors of ERK and methods of use” (Kura Oncology, Inc., priority 2013, dated 2019), this text covers IC50 for 60 molecules.

The assay concerns phospho-p90 RSK (RSK1 Thr359/Ser363) in A375 (Braf V600E) cells. The assay is described as follows: Phospho-p90 RSK ELISA using A375 (Braf V600E) cells. The format is cell-based. The conditions noted are these: Homo sapiens, A-375, 2 hours compound treatment, read-out: Cellular Phospho-p90RSK IC50. The method, then:
In preparation for the assay, an ELISA plate with the pre-coated goat anti-mouse antibody (Thermo Scientific) was treated with a mouse anti-human RSK1 antibody (monoclonal, Invitrogen) at 1:800 dilution (150 ng/well) in PBS, and the plate was placed on a plate shaker at 4° C. overnight. […] After two […] of the compound treatment, the supernatant was removed from the cell plate, and cells were lysed in 100 μl per well of cell lysis buffer (Cell Signaling Technologies) containing phosphatase and protease inhibitors (Cell Signaling Technologies) on a plate shaker at 4° C. for 20 minutes. The ELISA plate was washed four times with ELISA wash buffer (Thermo Scientific) prior to addition of 100 μL cell lysate. The lysate was incubated on the ELISA plate with gentle shaking at room temperature for 2 hours. The contents of the wells were removed, and the ELISA plate was washed four times with wash buffer, and incubated with 100 μL per well of anti-phospho-RSK1 (Thr359/Ser363) rabbit monoclonal antibody (Millipore) at dilution of 1:1000 in StartingBlock buffer (Thermo Scientific) on a plate shaker at room temperature for 1 hour. The contents of the wells were removed, the ELISA plate was washed four times with wash buffer, and was incubated with 100 μL per well of goat anti-rabbit HRP (Thermo Scientific) at dilution of 1:3000 in StartingBlock buffer (Thermo Scientific) on a plate shaker at room temperature for 1 hour. The contents of the wells were removed, the ELISA plate was washed four times with wash buffer, and then incubated with 100 μL per well of TMB substrate solution (Thermo Scientific) on a plate shaker at room temperature for 20 minutes. Finally, 100 μL of TMB stop solution (Thermo Scientific) was added to each well and the absorbance is measured at 450 nm on a Tecan plate reader.
(An ELISA detects its analyte on a solid surface through an enzyme-linked reagent.)

Consider `Cc1cc(-c2n[nH]c3cc4c(cc23)CN([C@@H]2CN(CC(F)(F)F)C[C@H]2C2CC2)C(=O)N4)ccn1` (mixture of isomers) [Example 319], for which the IC50 – broadly, the concentration that inhibits the measured activity by half – fell in the range of 250 to 1000 nM. In the case of `Cc1cc(-c2n[nH]c3cc4c(cc23)CN([C@@H]2CN(CC(F)(F)F)C[C@H]2C(C)C)C(=O)N4)ccn1` (mixture of isomers) [Example 322], the IC50 was 250 to 1000 nM.

As to `Cc1cc(-c2n[nH]c3cc4c(cc23)CN([C@@H]2CN(C)C[C@H]2C(C)C)C(=O)N4)ccn1` (mixture of isomers) [Example 327], the half-maximal inhibitory concentration (IC50) was greater than 1000 nM.

Regarding `COc1ccc(-c2n[nH]c3cc4c(cc23)CN([C@@H]2CN(C)C[C@H]2c2ccccc2)C(=O)N4)cn1` (mixture of isomers) [Example 353], the IC50 was no more than 250 nM. Regarding `COc1cc(-c2n[nH]c3cc4c(cc23)CN([C@@H]2CN(C)C[C@H]2c2ccccc2)C(=O)N4)ccn1` (mixture of isomers) [Example 354], the half-maximal inhibitory concentration (IC50) was no more than 250 nM.

On to `COc1ncc(-c2n[nH]c3cc4c(cc23)CN([C@@H]2CN(C)C[C@H]2c2ccccc2)C(=O)N4)cn1` (mixture of isomers) [Example 355], for which the IC50 fell in the range of 250 to 1000 nM. As to `Cc1cc(-c2n[nH]c3cc4c(cc23)CN([C@@H]2CN(CCC#N)C[C@H]2c2ccccc2)C(=O)N4)ccn1` (mixture of isomers) [Example 356], the half-maximal inhibitory concentration (IC50) is no more than 250 nM.

As for `Cc1cc(-c2n[nH]c3cc4c(cc23)CN([C@@H]2CN(C3CCOCC3)C[C@H]2c2ccccc2)C(=O)N4)ccn1` (mixture of isomers) [Example 359], the IC50 lay in the range of 250 to 1000 nM. As to `Cc1cc(-c2n[nH]c3cc4c(cc23)CN([C@@H]2CN(CCC(F)(F)F)C[C@H]2c2ccccc2)C(=O)N4)ccn1` (mixture of isomers) [Example 387], the IC50 was 250 to 1000 nM.

For the molecule `Cc1cc(-c2n[nH]c3cc4c(cc23)CN([C@@H]2CNC[C@H]2c2ccccc2)C(=O)N4)ccn1` (racemic) [Example 223], the IC50 lay in the range of 250 to 1000 nM. For `Cc1cc(-c2n[nH]c3cc4c(cc23)CN([C@@H]2CN(CC(F)(F)F)C[C@H]2c2ccc(F)cc2)C(=O)N4)ccn1` (racemic) [Example 300] the value was no more than 250 nM; for `Cc1cc(-c2n[nH]c3cc4c(cc23)CN([C@@H]2CN(CC(F)(F)F)C[C@H]2C)C(=O)N4)ccn1` (racemic) [Example 302], no more than 250 nM; for `Cc1cc(-c2n[nH]c3cc4[nH]c(=O)c(Cc5ccccc5)cc4cc23)ccn1` [Example 6], no more than 250 nM. As for `COc1cc(-c2n[nH]c3cc4c(cc23)CN(Cc2ccc(F)c(Cl)c2)C(=O)N4)ccn1` [Example 38], the IC50 lay within 250 to 1000 nM. With `O=C1Nc2cc3[nH]nc(-c4ccc(F)cc4)c3cc2CN1Cc1ccc(F)c(Cl)c1` [Example 40], the IC50 is greater than 1000 nM. For `O=C1Nc2cc3[nH]nc(C4CC4)c3cc2CN1Cc1ccc(F)c(Cl)c1` [Example 42] the value was greater than 1000 nM. In the case of `Cc1cc(-c2n[nH]c3cc4c(cc23)CN(CCO)C(=O)N4)ccn1` [Example 43], the 50% inhibitory concentration (IC50) was greater than 1000 nM. Turning to `Cc1cc(-c2n[nH]c3cc4c(cc23)CN(C2CCOCC2)C(=O)N4)ccn1` [Example 44], the IC50 is 250 to 1000 nM. Take `COCCOCCN1Cc2cc3c(-c4ccnc(C)c4)n[nH]c3cc2NC1=O` [Example 45]: the IC50 fell in the range of 250 to 1000 nM. For `Cc1cc(-c2n[nH]c3cc4c(cc23)CN(CCN(C)C)C(=O)N4)ccn1` [Example 46], the half-maximal inhibitory concentration (IC50) is greater than 1000 nM. Regarding `O=C1Nc2cc3[nH]nc(-c4cn[nH]c4)c3cc2CN1Cc1ccc(F)c(Cl)c1` [Example 48], the IC50 was 250 to 1000 nM. For the molecule `Cc1cc(-c2n[nH]c3cc4c(cc23)CN(CCc2cccc(Cl)c2)C(=O)N4)ccn1` [Example 50], the IC50 is no more than 250 nM. As for `Cc1cc(-c2n[nH]c3cc4c(cc23)CN(CCN2CCOCC2)C(=O)N4)ccn1` [Example 51], the IC50 was greater than 1000 nM.

In the case of `Cc1cc(-c2n[nH]c3cc4c(cc23)CN(C(C)CC(C)C)C(=O)N4)ccn1` (stereo not drawn) [Example 53], the concentration for half-maximal inhibition (IC50) lay within 250 to 1000 nM.

Consider `Cc1cc(-c2n[nH]c3cc4c(cc23)CN([C@H](C)CO)C(=O)N4)ccn1` [Example 54], for which the IC50 was greater than 1000 nM. In the case of `Cc1cc(-c2n[nH]c3cc4c(cc23)CN(Cc2cccc(C#N)c2)C(=O)N4)ccn1` [Example 55], the concentration for half-maximal inhibition (IC50) is no more than 250 nM. For `Cc1cc(-c2n[nH]c3cc4c(cc23)CN(Cc2nccs2)C(=O)N4)ccn1` [Example 56], the IC50 fell in the range of 250 to 1000 nM. Take `O=C1Nc2cc3[nH]nc(-c4cccnc4)c3cc2CN1Cc1cccc(Cl)c1` [Example 57]: the IC50 is no more than 250 nM. On to `Cc1ccc(-c2n[nH]c3cc4c(cc23)CN(Cc2cccc(Cl)c2)C(=O)N4)cn1` [Example 58], for which the IC50 is no more than 250 nM.

For `O=C1Nc2cc3[nH]nc(-c4ccc5nncn5c4)c3cc2CN1Cc1cccc(Cl)c1` [Example 59], the IC50 is greater than 1000 nM. `O=C1Nc2cc3[nH]nc(-c4cn[nH]c4)c3cc2CN1Cc1cccc(Cl)c1` [Example 60]: the IC50 is greater than 1000 nM. In the case of `O=C1Nc2cc3[nH]nc(-c4ccc(=O)[nH]c4)c3cc2CN1Cc1cccc(Cl)c1` [Example 61] it was greater than 1000 nM; in that of `Cc1cc(-c2n[nH]c3cc4c(cc23)CN([C@@H]2CCCN(CC3CC3)C2)C(=O)N4)ccn1` [Example 62], 250 to 1000 nM; in that of `Cc1cc(-c2n[nH]c3cc4c(cc23)CN(CCc2ccc(F)cc2)CC(=O)N4)ccn1` [Example 67], greater than 1000 nM. On to `Cc1cc(-c2n[nH]c3cc4c(cc23)CN(C2CCN(Cc3ccccc3)CC2)C(=O)N4)ccn1` [Example 70], for which the IC50 was 250 to 1000 nM. For the molecule `COc1ncc(-c2n[nH]c3cc4c(cc23)CN([C@H](C)c2cccc(Cl)c2)C(=O)N4)cn1` [Example 71], the half-inhibitory concentration (IC50) is no more than 250 nM. `COc1ncc(-c2n[nH]c3cc4c(cc23)CN(Cc2ccc(F)cc2)C(=O)N4)cn1` [Example 72]: the IC50 is no more than 250 nM. On to `COc1ccc(-c2n[nH]c3cc4c(cc23)CN(Cc2cccc(Cl)c2)C(=O)N4)cn1` [Example 75], for which the IC50 was no more than 250 nM. In the case of `COc1ccc(-c2n[nH]c3cc4c(cc23)CN(Cc2ccc(F)cc2)C(=O)N4)cn1` [Example 76] it was no more than 250 nM. For `O=C1Nc2cc3[nH]nc(N4CCOCC4)c3cc2CN1Cc1cccc(Cl)c1` [Example 78] the value was no more than 250 nM; for `Cc1cc(-c2n[nH]c3cc4c(cc23)CN(CCN)C(=O)N4)ccn1` [Example 83], greater than 1000 nM; for `COc1ncc(-c2n[nH]c3cc4c(cc23)CN(CCc2cccc(Cl)c2)C(=O)N4)cn1` [Example 86], no more than 250 nM. On to `COc1ncc(-c2n[nH]c3cc4c(cc23)CN(Cc2cc(F)cc(F)c2)C(=O)N4)cn1` [Example 88], for which the half-maximal inhibitory concentration (IC50) was no more than 250 nM.

For `Cc1ncc(-c2n[nH]c3cc4c(cc23)CN(Cc2cccc(Cl)c2)C(=O)N4)cn1` [Example 90], the IC50 was no more than 250 nM. In the case of `COc1ncc(-c2n[nH]c3cc4c(cc23)CN([C@H](C)c2ccc(Cl)cc2)C(=O)N4)cn1` [Example 95] it was 250 to 1000 nM; in that of `O=C1Nc2cc3[nH]nc(-c4ccnnc4)c3cc2CN1Cc1ccc(F)cc1` [Example 97], 250 to 1000 nM. For `COc1ncc(-c2n[nH]c3cc4c(cc23)CN([C@H](C)c2cccc(C#N)c2)C(=O)N4)cn1` [Example 100], the IC50 was 250 to 1000 nM.

As to `O=C1Nc2cc3[nH]nc(-c4ccnnc4)c3cc2CN1CCc1ccc(F)cc1` [Example 110], the concentration for half-maximal inhibition (IC50) is 250 to 1000 nM.

For `C[C@H](c1cccc(Cl)c1)N1Cc2cc3c(-c4ccnnc4)n[nH]c3cc2NC1=O` [Example 111], the IC50 fell in the range of 250 to 1000 nM. With `O=C1Nc2cc3[nH]nc(-c4ccnnc4)c3cc2CN1Cc1ccc(F)cc1F` [Example 114], the IC50 was in the range of 250 to 1000 nM. With `C[C@H](c1ccc(Cl)cc1)N1Cc2cc3c(-c4ccnnc4)n[nH]c3cc2NC1=O` [Example 115], the 50% inhibitory concentration (IC50) was 250 to 1000 nM. Take `O=C1Nc2cc3[nH]nc(-c4ccnnc4)c3cc2CN1[C@H](CO)c1cccc(Cl)c1` [Example 117]: the half-inhibitory concentration (IC50) is greater than 1000 nM.

`COc1ncc(-c2n[nH]c3cc4c(cc23)CN([C@H](CO)c2cccc(Cl)c2)C(=O)N4)cn1` [Example 118]: the 50% inhibitory concentration (IC50) was no more than 250 nM. For `O=C1Nc2cc3[nH]nc(-c4ccnnc4)c3cc2CN1[C@@H]1CCCN(Cc2ccccc2F)C1` [Example 121], the IC50 was no more than 250 nM. As for `O=C1Nc2cc3[nH]nc(-c4ccnnc4)c3cc2CN1[C@@H]1CCCN(Cc2c(F)cccc2F)C1` [Example 122], the IC50 is no more than 250 nM. As for `O=C1Nc2cc3[nH]nc(-c4ccnnc4)c3cc2CN1Cc1cccc(C(F)(F)F)c1` [Example 124], the half-maximal inhibitory concentration (IC50) was 250 to 1000 nM. For `COc1ncc(-c2n[nH]c3cc4c(cc23)CN(Cc2cccc(C#N)c2)C(=O)N4)cn1` [Example 125] the value was 250 to 1000 nM; for `COc1cccc(F)c1CN1CCC[C@@H](N2Cc3cc4c(-c5ccnnc5)n[nH]c4cc3NC2=O)C1` [Example 126], no more than 250 nM; for `O=C1Nc2cc3[nH]nc(-c4ccnnc4)c3cc2CN1Cc1cc(F)cc(F)c1` [Example 127], 250 to 1000 nM. In the case of `N#Cc1cccc(CN2Cc3cc4c(-c5ccnnc5)n[nH]c4cc3NC2=O)c1` [Example 128] it was greater than 1000 nM.
